The text below walks through data of US9765092B2, “Tricyclic piperidine compounds” (ACTELION PHARMACEUTICALS LTD, priority 2013, dated 2017).

The assay addresses human TPH1 (Homo sapiens (Human), UniProt P17752). As to the kind of experiment: Biochemical in vitro assay using fluorescence readout (TPH1 inhibition).
Where [1] appears, read: full length human TPH1, 40 μM L-tryptophan, 15° C., 60 minutes, fluorescence at 540 nm, mean if determined several times.
The mark [2] stands for this setting: human TPH1, fluorescence readout.

Read-outs that look alike come from different tables or passages of the source.

human TPH1, sequence (P17752 whole entry): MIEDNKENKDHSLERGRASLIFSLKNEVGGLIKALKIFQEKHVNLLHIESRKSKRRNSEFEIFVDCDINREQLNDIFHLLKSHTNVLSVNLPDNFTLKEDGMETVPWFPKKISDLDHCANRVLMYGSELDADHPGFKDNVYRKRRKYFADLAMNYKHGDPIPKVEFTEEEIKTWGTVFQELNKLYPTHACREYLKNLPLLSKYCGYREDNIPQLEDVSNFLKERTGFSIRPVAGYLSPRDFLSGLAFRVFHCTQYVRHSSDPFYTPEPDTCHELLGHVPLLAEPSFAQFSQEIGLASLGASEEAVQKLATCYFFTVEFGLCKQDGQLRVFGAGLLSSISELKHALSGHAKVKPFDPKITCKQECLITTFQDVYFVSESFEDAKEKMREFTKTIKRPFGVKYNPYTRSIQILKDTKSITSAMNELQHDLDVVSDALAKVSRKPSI

Compound `Cc1nn2c3c(nc2s1)CCN(C(=O)COc1ccc(NS(C)(=O)=O)nc1Cl)C3c1cc(C(=O)N(C)C)cs1` (stereo not shown) [Example 1.9.4, 5-(6-(2-((2-Chloro-6-(methylsulfonamido)pyridin-3-yl)oxy)acetyl)-2-methyl-5,6,7,8-tetra-hydro-[1,3,4]thiadiazolo[2′,3′:2,3]imidazo[4,5-c]pyridin-5-yl)-N,N-dimethylthiophene-3-carboxamide] had an IC50 under setting [1] of 32 nM. That is a double-digit nanomolar value. Under setting [2], `COC1(c2csc(C3c4c(nc5sc(C)nn45)CCN3C(=O)COc3ccc(N4CCOCC4)nc3Cl)c2)COC1` (stereo not shown) [Example 1.50.1, 2-((2-chloro-6-morpholinopyridin-3-yl)oxy)-1-(5-(4-(3-methoxyoxetan-3-yl)thiophen-2-yl)-2-methyl-7,8-dihydro-[1,3,4]thiadiazolo[2′,3′:2,3]imidazo[4,5-c]pyridin-6(5H)-yl)ethanone] showed an IC50 of 6 nM. This counts as single-digit nanomolar. Still for that read-out and setting: the result for `Cc1nn2c3c(nc2s1)CCN(C(=O)COc1cnc(C(F)(F)F)nc1Cl)C3c1ccc(Cl)cc1F` (stereo not shown) [Example 1.4.36, 2-((4-chloro-2-(trifluoromethyl)pyrimidin-5-yl)oxy)-1-(5-(4-chloro-2-fluorophenyl)-2-methyl-7,8-dihydro-[1,3,4]thiadiazolo[2′,3′:2,3]imidazo[4,5-c]pyridin-6(5H)-yl)ethanone] reads 38 nM.

Compound `CS(=O)(=O)Nc1ccc(OCC(=O)N2CCc3nc4sccn4c3C2c2sccc2F)c(Cl)n1` (stereo not shown) [Example 6.8.4, N-(6-chloro-5-(2-(5-(3-fluorothiophen-2-yl)-7,8-dihydrothiazolo[2′,3′:2,3]imidazo[4,5-c]pyridin-6(5H)-yl)-2-oxoethoxy)pyridin-2-yl)methanesulfonamide] gave an IC50 under setting [2] of 7 nM. Same read-out and setting: the figure for `CNC(=O)c1cc(F)c(C2c3c(nc4sc(C)nn34)CCN2C(=O)COc2ccc(C(F)(F)F)nc2Cl)s1` (stereo not shown) [Example 1.25.3, 5-(6-(2-((2-chloro-6-(trifluoromethyl)pyridin-3-yl)oxy)acetyl)-2-methyl-5,6,7,8-tetrahydro-[1,3,4]thiadiazolo [2′,3′:2,3]imidazo[4,5-c]pyridin-5-yl)-4-fluoro-N-methylthiophene-2-carboxamide] is 35 nM; for `COCCOc1ccc(C2c3c(nc4sc(C)nn34)CCN2C(=O)COc2ccc(C(=O)NC3CC3)nc2Cl)c(F)c1` (stereo not shown) [Example 1.83.1, 6-chloro-N-cyclopropyl-5-(2-(5-(2-fluoro-4-(2-methoxyethoxy)phenyl)-2-methyl-7,8-dihydro-[1,3,4]thiadiazolo[2′,3′:2,3]imidazo[4,5-c]pyridin-6(5H)-yl)-2-oxoethoxy)picolinamide] it is 24 nM; for `Cc1nn2c3c(nc2s1)CCN(C(=O)COc1cccnc1Cl)C3c1sc(C(=O)N(C)C)cc1F` (stereo not shown) [Example 1.24.5, 5-(6-(2-((2-chloropyridin-3-yl)oxy)acetyl)-2-methyl-5,6,7,8-tetrahydro-[1,3,4]thiadiazolo[2′,3′:2,3]imidazo[4,5-c]pyridin-5-yl)-4-fluoro-N,N-dimethylthiophene-2-carboxamide] it is 64 nM. Take `Cc1nn2c3c(nc2s1)CCN(C(=O)COc1ccc(N2CC(F)(F)C2)nc1Cl)C3c1ccc(Cl)cc1F` (stereo not shown) [Example 1.4.18, 1-(5-(4-Chloro-2-fluorophenyl)-2-methyl-7,8-dihydro-[1,3,4]thiadiazolo[2′,3′:2,3]imidazo[4,5-c]pyridin-6(5H)-yl)-2-((2-chloro-6-(3,3-difluoroazetidin-1-yl)-pyridin-3-yl)oxy)ethanone]: under setting [1], the IC50 was 3 nM. Regarding `Cc1ccc(C2c3c(nc4sc(CF)nn34)CCN2C(=O)COc2ccc(NS(C)(=O)=O)nc2Cl)c(F)c1` (stereo not shown) [Example 7.3.1, N-(6-chloro-5-(2-(5-(2-fluoro-4-methylphenyl)-2-(fluoromethyl)-7,8-dihydro-[1,3,4]thiadiazolo[2′,3′:2,3]imidazo[4,5-c]pyridin-6(5H)-yl)-2-oxoethoxy)pyridin-2-yl)methanesulfonamide], the IC50 under setting [2] was found to be 8 nM. On the same count and under the same terms, the result for `Cc1nn2c3c(nc2s1)CCN(C(=O)COc1cccnc1F)C3c1ccc(C2CC2)cc1F` (stereo not shown) [Example 1.6.5, 1-(5-(4-cyclopropyl-2-fluorophenyl)-2-methyl-7,8-dihydro-[1,3,4]thiadiazolo[2′,3′:2,3]imidazo[4,5-c]pyridin-6(5H)-yl)-2-((2-fluoropyridin-3-yl)oxy)ethanone] reads 89 nM; that for `O=C(COc1ccc(N2CCOCC2)nc1Cl)N1CCc2nc3sccn3c2C1c1ccc(C2CC2)cc1F` (stereo not shown) [Example 6.6.1, 2-((2-chloro-6-morpholinopyridin-3-yl)oxy)-1-(5-(4-cyclopropyl-2-fluorophenyl)-7,8-dihydrothiazolo-[2′,3′:2,3]imidazo[4,5-c]pyridin-6(5H)-yl)ethanone], 4 nM; that for `Cc1nn2c3c(nc2s1)CCN(C(=O)COc1ccc(C(N)=O)nc1Cl)C3c1ncc(Cl)cc1F` (stereo not shown) [Example 1.33.4, 6-chloro-5-(2-(5-(5-chloro-3-fluoropyridin-2-yl)-2-methyl-7,8-dihydro-[1,3,4]thiadiazolo[2′,3′:2,3]imidazo[4,5-c]pyridin-6(5H)-yl)-2-oxoethoxy)picolinamide], 7 nM. On the same count and under the same terms, the result for `CN(C)C(=O)c1cc(F)c(C2c3c(nc4sccn34)CCN2C(=O)COc2ccc(NS(C)(=O)=O)cc2Cl)s1` (stereo not shown) [Example 6.9.1, 5-(6-(2-(2-chloro-4-(methylsulfonamido)phenoxy)-acetyl)-5,6,7,8-tetrahydrothiazolo[2′,3′:2,3]imidazo[4,5-c]pyridin-5-yl)-4-fluoro-N,N-dimethylthiophene-2-carboxamide] reads 2 nM.

With `Cc1nn2c3c(nc2s1)CCN(C(=O)COc1ccc(N2CCOCC2)nc1Cl)C3c1c(C)noc1C` (stereo not shown) [Example 1.5.2, 2-((2-chloro-6-morpholinopyridin-3-yl)oxy)-1-(5-(3,5-dimethylisoxazol-4-yl)-2-methyl-7,8-dihydro-[1,3,4]thiadiazolo[2′,3′:2,3]imidazo[4,5-c]pyridin-6(5H)-yl)ethanone], under setting [2], the IC50 was 9 nM. Under setting [2], `Cc1nn2c3c(nc2s1)CCN(C(=O)COc1ccc(NS(=O)(=O)C2CC2)nc1Cl)C3c1sccc1F` (stereo not shown) [Example 1.23.9, N-(6-chloro-5-(2-(5-(3-fluorothiophen-2-yl)-2-methyl-7,8-dihydro-[1,3,4]thiadiazolo[2′,3′:2,3]imidazo[4,5-c]pyridin-6(5H)-yl)-2-oxoethoxy)pyridin-2-yl)cyclopropanesulfonamide] showed an IC50 of 14 nM. Turning to `Cc1nn2c3c(nc2s1)CCN(C(=O)COc1ccc(C(=O)N(C)C)nc1Cl)C3c1cc(C(=O)N(C)C)cs1` (stereo not shown) [Example 1.9.5, 6-Chloro-5-(2-(5-(4-(dimethylcarbamoyl)thiophen-2-yl)-2-methyl-7,8-dihydro-[1,3,4]-thiadiazolo[2′,3′:2,3]imidazo[4,5-c]pyridin-6(5H)-yl)-2-oxoethoxy)-N,N-dimethyl-picolinamide], the midpoint of inhibition under setting [1], the IC50, lay at 22 nM. For the compound `Cc1cnc(C2c3c(nc4sc(C)nn34)CCN2C(=O)COc2ccc(C#N)nc2Cl)c(F)c1` (stereo not shown) [Example 1.31.3, 6-chloro-5-(2-(5-(3-fluoro-5-methylpyridin-2-yl)-2-methyl-7,8-dihydro-[1,3,4]thiadiazolo[2′,3′:2,3]imidazo[4,5-c]pyridin-6(5H)-yl)-2-oxoethoxy)picolinonitrile], the IC50 under setting [2] is 36 nM. The same measure, in the same setting: the result for `Cc1nn2c3c(nc2s1)CCN(C(=O)COc1ccc(N2CCOCC2)cc1Cl)C3c1cnc(C2CC2)nc1C` (stereo not shown) [Example 1.10.4, 2-(2-chloro-4-morpholinophenoxy)-1-(5-(2-cyclopropyl-4-methylpyrimidin-5-yl)-2-methyl-7,8-dihydro-[1,3,4]thiadiazolo [2′,3′:2,3]imidazo[4,5-c]pyridin-6(5H)-yl)ethanone] reads 18 nM; that for `COC(C)(C)c1ccc(C2c3c(nc4sc(C)nn34)CCN2C(=O)COc2ccc(C(=O)NC3CC3)nc2Cl)c(F)c1` (stereo not shown) [Example 1.81.1, 6-chloro-N-cyclopropyl-5-(2-(5-(2-fluoro-4-(2-methoxypropan-2-yl)phenyl)-2-methyl-7,8-dihydro-[1,3,4]thiadiazolo[2′,3′:2,3]imidazo[4,5-c]pyridin-6(5H)-yl)-2-oxoethoxy)picolinamide], 27 nM.

As to `Cc1nn2c3c(nc2s1)CCN(C(=O)COc1ccc(C(=O)N(C)C)nc1Cl)C3c1ccc(F)cc1F` (stereo not shown) [Example 1.55.1, 6-chloro-5-(2-(5-(2,4-difluorophenyl)-2-methyl-7,8-dihydro-[1,3,4]thiadiazolo[2′,3′:2,3]imidazo[4,5-c]pyridin-6(5H)-yl)-2-oxoethoxy)-N,N-dimethylpicolinamide], the IC50 under setting [2] turned out to be 19 nM. The IC50 values of the last two compounds are within 1.5-fold of each other. The compound `Cc1nn2c3c(nc2s1)CCN(C(=O)COc1ccc(N(C)C)nc1Cl)C3c1ccc(Cl)cc1F` (stereo not shown) [Example 1.4.7, 1-(5-(4-chloro-2-fluorophenyl)-2-methyl-7,8-dihydro-[1,3,4]thiadiazolo[2′,3′:2,3]imidazo[4,5-c]pyridin-6(5H)-yl)-2-((2-chloro-6-(dimethylamino)pyridin-3-yl)oxy)ethanone] had an IC50 under setting [2] of 6 nM.

For the compound `CNC(=O)c1cc(F)c(C2c3c(nc4sc(C)nn34)CCN2C(=O)COc2ccc(C#N)cc2Cl)s1` (stereo not shown) [Example 1.25.8, 5-(6-(2-(2-chloro-4-cyanophenoxy)acetyl)-2-methyl-5,6,7,8-tetrahydro-[1,3,4]thiadiazolo[2′,3′:2,3]imidazo[4,5-c]pyridin-5-yl)-4-fluoro-N-methylthiophene-2-carboxamide], under setting [2], the IC50 stood at 43 nM.

For the compound `CS(=O)(=O)Nc1ccc(OCC(=O)N2CCc3nc4sc(C(F)F)nn4c3[C@@H]2c2ccc(Cl)cc2F)c(Cl)n1` [Example 8.1.4], 12 nM corresponded to half-maximal inhibition under setting [2] (IC50).

As for `Cc1ccc(C2c3c(nc4sc(C)nn34)CCN2C(=O)COc2ccc(NS(C)(=O)=O)nc2Cl)c(F)c1` (stereo not shown) [Example 1.53.2, N-(6-chloro-5-(2-(5-(2-fluoro-4-methylphenyl)-2-methyl-7,8-dihydro-[1,3,4]thiadiazolo[2′,3′:2,3]imidazo[4,5-c]pyridin-6(5H)-yl)-2-oxoethoxy)pyridin-2-yl)methanesulfonamide], inhibition was half-maximal at 12 nM (IC50).

Turning to `CCc1nc(C)ccc1OCC(=O)N1CCc2nc3sc(C)nn3c2C1c1ncc(C2CC2)cc1F` (stereo not shown) [Example 1.14.2, 1-(5-(5-cyclopropyl-3-fluoropyridin-2-yl)-2-methyl-7,8-dihydro-[1,3,4]thiadiazolo[2′,3′:2,3]imidazo[4,5-c]pyridin-6(5H)-yl)-2-((2-ethyl-6-methylpyridin-3-yl)oxy)ethanone], the IC50 under setting [2] came to 6 nM.
